In the OligoGym collection:
“And” between values parts separate entries of the source, which are not always exact repeats. Equal values may be shown once. HELM strings list units from the 5' end as sugar, base in round brackets, then linkage (d deoxyribose, r ribose, m 2'-O-methyl, p phosphodiester). Methylation of C is not given here. [moe] = 2'-O-(2-methoxyethyl) (MOE); [cEt] = constrained ethyl (cEt); [sp] = phosphorothioate linkage

Molecular target: HBV
Conditions: ASO

Substance | target mRNA inhibition (HepG2, 0.07 µM) | further results
RNA1{[moe](A)[sp].[moe](C)[sp].[moe](G)[sp].[moe](G)[sp].d(G)[sp].d(C)[sp].d(A)[sp].d(A)[sp].d(C)[sp].d(A)[sp].d(T)[sp].d(A)[sp].d(C)[sp].[moe](C)[sp].[moe](T)[sp].[moe](T)[sp].[moe](G)}$$$$V2.0 | 38% and 41% | 
RNA1{[moe](A)[sp].[moe](C)[sp].[moe](G)[sp].[moe](G)[sp].d(G)[sp].d(C)[sp].d(A)[sp].d(A)[sp].d(C)[sp].d(A)[sp].d(T)[sp].d(A)[sp].d(C)[sp].[moe](C)[sp].[moe](T)[sp].[moe](T)}$$$$V2.0 | 50% and 54% | 
RNA1{[moe](A)[sp].[moe](C)[sp].[moe](G)[sp].[moe](T)[sp].[moe](G)[sp].d(C)[sp].d(A)[sp].d(G)[sp].d(A)[sp].d(G)[sp].d(G)[sp].d(T)[sp].d(G)[sp].d(A)[sp].[moe](A)[sp].[moe](G)}$$$$V2.0 | 6% and 13% | 
RNA1{[moe](A)[sp].[moe](C)[sp].[moe](G)[sp].[moe](T)[sp].d(G)[sp].d(C)[sp].d(A)[sp].d(G)[sp].d(A)[sp].d(G)[sp].d(G)[sp].d(T)[sp].d(G)[sp].[moe](A)[sp].[moe](A)[sp].[moe](G)[sp].[moe](C)}$$$$V2.0 | 62% and 57% | 
RNA1{[moe](A)[sp].[moe](C)[sp].[moe](G)[sp].[moe](T)[sp].d(G)[sp].d(C)[sp].d(A)[sp].d(G)[sp].d(A)[sp].d(G)[sp].d(G)[sp].d(T)[sp].d(G)[sp].[moe](A)[sp].[moe](A)[sp].[moe](G)}$$$$V2.0 | 53% and 45% | 
RNA1{[moe](A)[sp].[moe](C)[sp].[moe](G)[sp].d(T)[sp].d(G)[sp].d(C)[sp].d(A)[sp].d(G)[sp].d(A)[sp].d(G)[sp].d(G)[sp].d(T)[sp].d(G)[sp].[cEt](A)[sp].[cEt](A)[sp].[cEt](G)}$$$$V2.0 | 74% and 78% | 
RNA1{[moe](A)[sp].[moe](C)[sp].[moe](T)[sp].[moe](A)[sp].[moe](G)[sp].d(T)[sp].d(A)[sp].d(A)[sp].d(A)[sp].d(C)[sp].d(T)[sp].d(G)[sp].d(A)[sp].d(G)[sp].[moe](C)[sp].[moe](C)}$$$$V2.0 | 64% and 66% | 
RNA1{[moe](A)[sp].[moe](C)[sp].[moe](T)[sp].[moe](A)[sp].d(G)[sp].d(T)[sp].d(A)[sp].d(A)[sp].d(A)[sp].d(C)[sp].d(T)[sp].d(G)[sp].d(A)[sp].[moe](G)[sp].[moe](C)[sp].[moe](C)[sp].[moe](A)}$$$$V2.0 | 62% and 58% | 
RNA1{[moe](A)[sp].[moe](C)[sp].[moe](T)[sp].[moe](G)[sp].[moe](G)[sp].[moe](A)[sp].d(G)[sp].d(C)[sp].d(C)[sp].d(A)[sp].d(C)[sp].d(C)[sp].d(A)[sp].d(G)[sp].d(C)[sp].[moe](A)[sp].[moe](G)}$$$$V2.0 | 66% and 46% | 
RNA1{[moe](A)[sp].[moe](C)[sp].[moe](T)[sp].d(G)[sp].d(G)[sp].d(A)[sp].d(G)[sp].d(C)[sp].d(C)[sp].d(A)[sp].d(C)[sp].d(C)[sp].d(A)[sp].[cEt](G)[sp].[cEt](C)[sp].[cEt](A)}$$$$V2.0 | 64% and 73% | 
RNA1{[moe](A)[sp].[moe](C)[sp].d(C)[sp].d(A)[sp].d(C)[sp].d(T)[sp].d(G)[sp].d(A)[sp].d(A)[sp].d(C)[sp].d(A)[sp].[moe](A)[sp].[moe](A)[sp].[moe](T)[sp].[moe](G)[sp].[moe](G)[sp].[moe](C)}$$$$V2.0 | 58% and 68% | 
RNA1{[moe](A)[sp].[moe](C)[sp].d(G)[sp].d(G)[sp].d(G)[sp].d(C)[sp].d(A)[sp].d(A)[sp].d(C)[sp].d(A)[sp].d(T)[sp].[moe](A)[sp].[moe](C)[sp].[moe](C)[sp].[moe](T)[sp].[moe](T)}$$$$V2.0 | 61% and 42% | 
RNA1{[moe](A)[sp].[moe](C)[sp].d(T)[sp].d(G)[sp].d(G)[sp].d(A)[sp].d(G)[sp].d(C)[sp].d(C)[sp].d(A)[sp].d(C)[sp].[moe](C)[sp].[moe](A)[sp].[moe](G)[sp].[moe](C)[sp].[moe](A)}$$$$V2.0 | 53% and 42% | 
RNA1{[moe](A)[sp].[moe](G)[sp].[moe](A)[sp].[moe](G)[sp].d(A)[sp].d(A)[sp].d(G)[sp].d(T)[sp].d(C)[sp].d(C)[sp].d(A)[sp].d(C)[sp].d(C)[sp].[moe](A)[sp].[moe](C)[sp].[moe](G)[sp].[moe](A)}$$$$V2.0 | 17% | 
RNA1{[moe](A)[sp].[moe](G)[sp].[moe](A)[sp].[moe](T)[sp].[moe](G)[sp].d(A)[sp].d(G)[sp].d(G)[sp].d(C)[sp].d(A)[sp].d(T)[sp].d(A)[sp].d(G)[sp].d(C)[sp].[moe](A)[sp].[moe](G)}$$$$V2.0 | 41% and 31% | 
RNA1{[moe](A)[sp].[moe](G)[sp].[moe](A)[sp].d(A)[sp].d(G)[sp].d(T)[sp].d(C)[sp].d(C)[sp].d(A)[sp].d(C)[sp].d(C)[sp].d(A)[sp].d(C)[sp].[cEt](G)[sp].[cEt](A)[sp].[cEt](G)}$$$$V2.0 | 42% and 55% | 

Substance | target mRNA inhibition (HepG2, 0.07 µM) | further results
RNA1{[moe](A)[sp].[moe](G)[sp].[moe](A)[sp].d(G)[sp].d(G)[sp].d(T)[sp].d(G)[sp].d(A)[sp].d(A)[sp].d(G)[sp].d(C)[sp].d(G)[sp].[moe](A)[sp].[moe](A)[sp].[moe](G)[sp].[moe](T)[sp].[moe](G)}$$$$V2.0 | 70% and 52% | 
RNA1{[moe](A)[sp].[moe](G)[sp].[moe](C)[sp].[moe](G)[sp].[moe](A)[sp].d(A)[sp].d(G)[sp].d(T)[sp].d(G)[sp].d(C)[sp].d(A)[sp].d(C)[sp].d(A)[sp].d(C)[sp].[moe](G)[sp].[moe](G)}$$$$V2.0 | 79% and 74% | 
RNA1{[moe](A)[sp].[moe](G)[sp].[moe](C)[sp].d(G)[sp].d(A)[sp].d(A)[sp].d(G)[sp].d(T)[sp].d(G)[sp].d(C)[sp].d(A)[sp].d(C)[sp].d(A)[sp].[cEt](C)[sp].[cEt](G)[sp].[cEt](G)}$$$$V2.0 | 82% and 86% | target mRNA inhibition (HepG2, 0.0092593 µM): 17%; target mRNA inhibition (HepG2, 0.0277778 µM): 49%; target mRNA inhibition (HepG2, 0.0833333 µM): 79%; target mRNA inhibition (HepG2, 0.25 µM): 90%
RNA1{[moe](A)[sp].[moe](G)[sp].[moe](G)[sp].[moe](C)[sp].d(A)[sp].d(T)[sp].d(A)[sp].d(G)[sp].d(C)[sp].d(A)[sp].d(G)[sp].d(C)[sp].d(A)[sp].[moe](G)[sp].[moe](G)[sp].[moe](A)}$$$$V2.0 | 52% and 36% | 
RNA1{[moe](A)[sp].[moe](G)[sp].[moe](G)[sp].[moe](T)[sp].d(G)[sp].d(A)[sp].d(A)[sp].d(G)[sp].d(C)[sp].d(G)[sp].d(A)[sp].d(A)[sp].d(G)[sp].[moe](T)[sp].[moe](G)[sp].[moe](C)}$$$$V2.0 | 3% and 19% | 
RNA1{[moe](A)[sp].[moe](G)[sp].[moe](T)[sp].[moe](T)[sp].[moe](C)[sp].d(C)[sp].d(G)[sp].d(C)[sp].d(A)[sp].d(G)[sp].d(T)[sp].d(A)[sp].d(T)[sp].d(G)[sp].[moe](G)[sp].[moe](A)[sp].[moe](T)}$$$$V2.0 | 56% and 49% | 
RNA1{[moe](A)[sp].[moe](G)[sp].[moe](T)[sp].d(C)[sp].d(C)[sp].d(A)[sp].d(C)[sp].d(C)[sp].d(A)[sp].d(C)[sp].d(G)[sp].d(A)[sp].d(G)[sp].[cEt](T)[sp].[cEt](C)[sp].[cEt](T)}$$$$V2.0 | 35% and 29% | 
RNA1{[moe](A)[sp].[moe](G)[sp].d(G)[sp].d(A)[sp].d(G)[sp].d(T)[sp].d(T)[sp].d(C)[sp].d(C)[sp].d(G)[sp].d(C)[sp].[moe](A)[sp].[moe](G)[sp].[moe](T)[sp].[moe](A)[sp].[moe](T)}$$$$V2.0 | 50% and 37% | 
RNA1{[moe](A)[sp].[moe](G)[sp].d(G)[sp].d(C)[sp].d(A)[sp].d(T)[sp].d(A)[sp].d(G)[sp].d(C)[sp].d(A)[sp].d(G)[sp].[moe](C)[sp].[moe](A)[sp].[moe](G)[sp].[moe](G)[sp].[moe](A)[sp].[moe](T)}$$$$V2.0 | 75% and 68% | 
RNA1{[moe](A)[sp].[moe](G)[sp].d(G)[sp].d(T)[sp].d(G)[sp].d(A)[sp].d(A)[sp].d(G)[sp].d(C)[sp].d(G)[sp].d(A)[sp].[moe](A)[sp].[moe](G)[sp].[moe](T)[sp].[moe](G)[sp].[moe](C)}$$$$V2.0 | 70% and 60% | 
RNA1{[moe](A)[sp].[moe](G)[sp].d(T)[sp].d(T)[sp].d(C)[sp].d(C)[sp].d(G)[sp].d(C)[sp].d(A)[sp].d(G)[sp].d(T)[sp].[moe](A)[sp].[moe](T)[sp].[moe](G)[sp].[moe](G)[sp].[moe](A)}$$$$V2.0 | 63% and 64% | 
RNA1{[moe](A)[sp].[moe](T)[sp].[moe](G)[sp].[moe](A)[sp].d(G)[sp].d(G)[sp].d(C)[sp].d(A)[sp].d(T)[sp].d(A)[sp].d(G)[sp].d(C)[sp].d(A)[sp].[moe](G)[sp].[moe](C)[sp].[moe](A)}$$$$V2.0 | 54% and 49% | 
RNA1{[moe](A)[sp].[moe](T)[sp].[moe](T)[sp].[moe](T)[sp].[moe](A)[sp].[moe](T)[sp].d(G)[sp].d(C)[sp].d(C)[sp].d(T)[sp].d(A)[sp].d(C)[sp].d(A)[sp].d(G)[sp].d(C)[sp].[moe](C)[sp].[moe](T)}$$$$V2.0 | 74% and 57% | target mRNA inhibition (HepG2, 0.0092593 µM): 0%; target mRNA inhibition (HepG2, 0.0277778 µM): 12%; target mRNA inhibition (HepG2, 0.0833333 µM): 24%; target mRNA inhibition (HepG2, 0.25 µM): 46%
RNA1{[moe](A)[sp].[moe](T)[sp].[moe](T)[sp].d(T)[sp].d(A)[sp].d(T)[sp].d(G)[sp].d(C)[sp].d(C)[sp].d(T)[sp].d(A)[sp].d(C)[sp].d(A)[sp].[cEt](G)[sp].[cEt](C)[sp].[cEt](C)}$$$$V2.0 | 47% and 65% | 
RNA1{[moe](C)[sp].[cEt](A)[sp].[cEt](A)[sp].d(T)[sp].d(T)[sp].d(T)[sp].d(A)[sp].d(T)[sp].d(G)[sp].d(C)[sp].d(C)[sp].d(T)[sp].d(A)[sp].[cEt](C)[sp].[cEt](A)[sp].[moe](G)}$$$$V2.0 | 49% and 41% | 
RNA1{[moe](C)[sp].[cEt](A)[sp].d(A)[sp].d(T)[sp].d(T)[sp].d(T)[sp].d(A)[sp].d(T)[sp].d(G)[sp].d(C)[sp].d(C)[sp].d(T)[sp].[cEt](A)[sp].[moe](C)[sp].[cEt](A)[sp].[moe](G)}$$$$V2.0 | 35% and 34% | 
